Source: patent US5495032A, “Process for producing 7-(substituted)-8-(substituted-9-[(substituted glycyl)amido]-6-demethyl-6-deoxytetracyclines” (priority 1994, dated 1996)
Structures can show the parent of a compound that is named as a salt. Where two headings read alike, the source gives them in different places.

What was measured:
Assay type in all cases: cell-based
E. coli PRP1 Tet A = assay: microbe, parasite or virus in culture; conditions: Escherichia coli, PRP1TETA, 18 h, 18 hours at 35° C.
S. aureus SMITH (MP) = assay: MIC, agar dilution method; conditions: Staphylococcus aureus, 18 hours at 35° C.
S. aureus UBMS 88-4 = assay: MIC, agar dilution method; conditions: Staphylococcus aureus, UBMS884, 18 hours at 35° C., read-out: MIC
E. coli #311 (MP) = assay: MIC, agar dilution method; conditions: Escherichia coli, 18 hours at 35° C., read-out: MIC
S. aureus IVES 2943 = assay: MIC, agar dilution method; conditions: Staphylococcus aureus
[1] = test system: S. hemolyticus AVHAH 88-3; assay: MIC, agar dilution method; conditions: Streptococcus pyogenes, AVHAH883, 18 h, 18 hours at 35° C.
S. aureus UBMS 90-3 = assay: MIC, agar dilution method; conditions: Staphylococcus aureus, UBMS903, 18 h
E. coli J3272 Tet D = assay: microbe, parasite or virus in culture; conditions: Escherichia coli, J3272TETD, 18 h
[2] = test system: E. coli UBMS 89-2 Tet sens; assay: MIC, agar dilution method; conditions: Escherichia coli, UBMS892TETSENS, 18 h, 18 hours at 35° C., read-out: MIC
E. coli J2175 = assay: MIC, agar dilution method; conditions: Escherichia coli, 18 hours at 35° C., read-out: MIC
S. aureus IVES 1 983 = assay: MIC, agar dilution method; conditions: Staphylococcus aureus
S. mariescens FPOR 8733 = assay: MIC, agar dilution method; conditions: 18 h, 18 hours at 35° C.
S. aureus NEMC 8769 = assay: MIC, agar dilution method; conditions: Staphylococcus aureus, NEMC8769, 18 h
E. coli UBMS 89-1 Tet M = assay: microbe, parasite or virus in culture; conditions: Escherichia coli, UBMS891TETM, 18 h, 18 hours at 35° C.
[3] = test system: S. aureus UBMS 88-7 Tet K; assay: microbe, parasite or virus in culture; conditions: Staphylococcus aureus, UBMS887TETK, 18 h, 18 hours at 35° C.
E. coli J3272 Tet C = assay: microbe, parasite or virus in culture; conditions: Escherichia coli, J3272TETC, 18 h
[4] = test system: S. aureus UBMS 88-5 Tet M; assay: microbe, parasite or virus in culture; conditions: Staphylococcus aureus, UBMS885TETM, 18 h
[5] = test system: S. aureus UBMS 90-1 Tet M; assay: microbe, parasite or virus in culture; conditions: Staphylococcus aureus, UBMS901TETM, 18 h, 18 hours at 35° C.
E. faecalis ATCC 29212 = assay: MIC, agar dilution method; conditions: Enterococcus faecalis
E. coli UBMS 88-1 Tet B = assay: microbe, parasite or virus in culture; conditions: Escherichia coli, UBMS881TETB, 18 h, 18 hours at 35° C.
E. coli UBMS 90-4 Tet M = assay: microbe, parasite or virus in culture; conditions: Escherichia coli, UBMS904TETM, 18 h, 18 hours at 35° C.
S. aureus ATCC 29213 = assay: MIC, agar dilution method; conditions: Staphylococcus aureus, ATCC29213, 18 h, 18 hours at 35° C.
[6] = test system: S. aureus UBMS 90-2 Tet M; assay: microbe, parasite or virus in culture; conditions: Staphylococcus aureus, UBMS902TETM, 18 h, 18 hours at 35° C.
S. aureus ROSE (MP) = assay: MIC, agar dilution method; conditions: Staphylococcus aureus, 18 h, 18 hours at 35° C.
E. coli UBMS 90-5 sens = assay: MIC, agar dilution method; conditions: Escherichia coli, UBMS905SENS, 18 hours at 35° C., read-out: MIC
E. coli BAJ9003 IMP MUT = assay: microbe, parasite or virus in culture; conditions: Escherichia coli, BAJ9003IMPMUT, 18 h, 18 hours at 35° C.
[7] = test system: Ps. acruginosa ATCC 27853; assay: MIC, agar dilution method; conditions: Ps. acruginosa ATCC 27853; 18 hours at 35° C.; read-out: MIC
E. coli ATCC 25922 = assay: MIC, agar dilution method; conditions: Escherichia coli, ATCC25922, 18 hours at 35° C., read-out: MIC
[8] = test system: E. coli MC 4100 Tet sens.; assay: MIC, agar dilution method; conditions: Escherichia coli, 18 hours at 35° C., read-out: MIC
[9] = test system: E. coli MC 4100 TNIOC Tet B; assay: microbe, parasite or virus in culture; conditions: Escherichia coli, 18 h, 18 hours at 35° C.
[10] = test system: X. maltophilia NEMC 87210; assay: MIC, agar dilution method; conditions: Stenotrophomonas maltophilia, NEMC87210, 18 h, 18 hours at 35° C.
Enterococcus 12201 = assay: MIC, agar dilution method; conditions: Enterococcus, 12201, 18 h, 18 hours at 35° C.

Row | SMILES | MIC (E. coli PRP1 Tet A) [µg/mL] | MIC (S. aureus UBMS 88-4) [µg/mL] | MIC (E. coli #311 (MP)) [µg/mL] | MIC [1] [µg/mL] | MIC (S. aureus UBMS 90-3) [µg/mL] | MIC (E. coli J3272 Tet D) [µg/mL] | MIC [2] [µg/mL] | MIC (E. coli J2175) [µg/mL] | MIC (S. mariescens FPOR 8733) [µg/mL] | MIC (S. aureus NEMC 8769) [µg/mL] | MIC (E. coli UBMS 89-1 Tet M) [µg/mL] | MIC [3] [µg/mL] | MIC (E. coli J3272 Tet C) [µg/mL] | MIC [4] [µg/mL] | MIC [5] [µg/mL] | MIC (E. coli UBMS 88-1 Tet B) [µg/mL] | MIC (E. coli UBMS 90-4 Tet M) [µg/mL] | MIC (S. aureus ATCC 29213) [µg/mL] | MIC [6] [µg/mL] | MIC (S. aureus ROSE (MP)) [µg/mL] | further results
1 | CN(C)[C@@H]1C(O)=C(C(N)=O)C(=O)[C@@]2(O)C(O)=C3C(=O)c4c(cc(Cl)c(NC(=O)CN5CCCC5)c4O)CC3CC12 (stereo partly drawn) [E, [7S-(7α,10aα)]-N-[9-(Aminocarbonyl)-3-chloro-7-(dimethylamino)-5,5a,6,6a,7, 10,10a,12-octahydro-1,2,10a,11-tetrahydroxy-10,12-dioxo-2-naphthacenyl]-1-pyrrolidineacetamide dihydrochloride] | 2 | 0.25 | 0.25 | 2 | 0.12 | 0.25 | 1 | 1 | 8 | 0.25 | 0.25 | 2 | 1 | 0.25 | 0.25 | 1 | 1 | 0.25 | 0.25 | 8 | MIC (S. aureus SMITH (MP); 18 h): 0.25 µg/mL; MIC (S. aureus IVES 2943; IVES2943, S. aureus IVES 2943, 18 hours at 35° C., read-out: MIC): 4 µg/mL; MIC (S. aureus IVES 1 983; IVES1983, S. aureus IVES 1 983, 18 hours at 35° C., read-out: MIC): 4 µg/mL; MIC (E. faecalis ATCC 29212; ATCC29212, 18 hours at 35° C., read-out: MIC): 0.12 µg/mL; MIC (E. coli UBMS 90-5 sens): 1 µg/mL; MIC (E. coli BAJ9003 IMP MUT): 0.12 µg/mL; MIC [7]: 32 µg/mL; MIC (E. coli ATCC 25922): 0.25 µg/mL; MIC [8]: 0.25 µg/mL; MIC [9]: 1 µg/mL; MIC [10]: 1 µg/mL; MIC (Enterococcus 12201): 0.25 µg/mL
2 | CCCCCNCC(=O)Nc1c(Cl)cc2c(c1O)C(=O)C1=C(O)[C@]3(O)C(=O)C(C(N)=O)=C(O)[C@@H](N(C)C)C3CC1C2 (stereo partly drawn) [H, [4S-(4α,12aα)]-8-Chloro-4-(dimethylamino)-1,4,4a,5,5a,6,11,12a-octahydro-3, 10,12,12a-tetrahydroxy-1,11-dioxo-9-[[(pentylamino)acetyl]amino]-2-naphthacenecarboxamide dihydrochloride] | 2 | 0.5 | 2 | 4 | 0.25 | 1 | 2 | 2 | 16 | 0.5 | 0.5 | 4 | 2 | 1 | 2 | 2 | 2 | 0.5 | 0.25 | 8 | MIC (S. aureus SMITH (MP); read-out: MIC): 0.5 µg/mL; MIC (S. aureus IVES 2943; IVES2943, 18 h): 8 µg/mL; MIC (S. aureus IVES 1 983; IVES1983, 18 h): 4 µg/mL; MIC (E. faecalis ATCC 29212; ATCC29212, 18 h, 18 hours at 35° C.): 0.12 µg/mL; MIC (E. coli UBMS 90-5 sens): 2 µg/mL; MIC (E. coli BAJ9003 IMP MUT): 0.25 µg/mL; MIC [7]: > 32 µg/mL; MIC (E. coli ATCC 25922): 2 µg/mL; MIC [8]: 0.25 µg/mL; MIC [9]: 2 µg/mL; MIC [10]: 4 µg/mL; MIC (Enterococcus 12201): 0.25 µg/mL
